The text below walks through data of PubChem BioAssay (NCI).

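Where inhibition never reached the appropriate level, the endpoint shown equals the highest concentration tested. Otherwise, values were interpolated linearly from a five-concentration, 48-hour dose response in 96-well plates. TGI marks complete inhibition of growth.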

One experiment deals with CAKI-1 renal. The experiment in a line: inhibition of tumour cell growth, NCI panel, 48 h.
Molecule `COC(=O)[C@H](CCSC)NC(=O)N[C@H](C)c1ccccc1` returned a TGI greater than 100 µM.
Still for that read-out and setting: with `C=CC[C@@H](N)C(=O)N(C)[C@@H](C)[C@@H](O)c1ccccc1` the figure was greater than 100 µM; with `N#Cc1sc2c(c1OC(=O)c1ccccc1)c(=O)n(-c1ccccc1)c(=S)n2-c1ccccc1`, greater than 100 µM.
On the same count and under the same terms, with `Cc1cc(C)c(-n2[nH]c(=O)n(C)c2=O)c(C)c1` the figure was greater than 100 µM.
On the same count and under the same terms, with `CC1=NC(=Cc2cccc(Cl)c2)C(=O)N1n1c(-c2ccccc2)nc2ccccc2c1=O` the figure was 87.6 µM.
`CO/C(=N\N=C\c1ccc(OC)c(OC)c1)c1ccncc1` yielded a TGI greater than 10 µM.
Still for that read-out and setting: with `COc1cc2c(c(OC)c1)/C(=C/Sc1ccccc1)C(=O)N(C(C)(C)C)C2` the figure was greater than 100 µM; with `CCC(CCCN)Nc1cc(OC)cc2c(C)ccnc12` (stereo unspecified), 29.5 µM.
Same read-out and setting: for `CC(C)(C)OC(=O)N/N=C(/N)Cc1ccc(Cl)cc1` the value was greater than 100 µM.

In another experiment the test system is UACC-62 melanoma. Kind of experiment: inhibition of tumour cell growth, NCI panel, 48 h.
The molecule `COC(=O)[C@@H]1[C@H](OC(C)=O)CCC2[C@@]3(C[C@@H](c4ccoc4)O[C@@H]3OC)[C@H](C)CC[C@]21C(=O)OC` (stereo partly specified) gave a TGI greater than 25 µM.
Same read-out and setting: with `Cc1n[nH]c(=O)n1N1C(=O)CCCC1=O` the figure was greater than 100 µM.
`CCN1CCC(C)OP1(=O)Cc1ccccc1` (stereo unspecified) displayed a TGI greater than 100 µM.
On the same count and under the same terms, for `COCc1nc(N)nc(N2N=C(C)CC2(C)C)n1` the value was greater than 100 µM; for `CC(C)(C)OC(=O)NC(Cc1ccccc1)OCc1ccccc1` (stereo unspecified), 28.7 µM.
For the molecule `CNC(=O)C1(N)c2ccccc2C=Cc2ccccc21`, the TGI was greater than 100 µM.
The same measure, in the same setting: for `CCOC(=O)C1C(c2ccc3c(c2)OCO3)c2c([nH][nH]c2=O)CC1(C)O` (stereo unspecified) the value was greater than 100 µM; for `CSc1nc2c(c(=O)[nH]1)N=C(c1ccc([N+](=O)[O-])cc1)CC(c1ccccc1)N2` (stereo unspecified), greater than 100 µM.
The same measure, in the same setting: for `C/C(=N\Nc1ccc([N+](=O)[O-])cc1[N+](=O)[O-])c1sc(-n2nc(-c3ccccc3)cc2-c2ccccc2)nc1C` the value was greater than 100 µM; for `COc1cc(C2SCC(=O)N2c2cccc(Cl)c2)cc(OC)c1OC` (stereo unspecified), 54.3 µM; for `COC1/C=C/C(C)C(C(C)C(OC)C(C)CCC(=O)C(C)C(C/C=C/N(C)C=O)OC)OC(=O)C=CC2OC2(C)CC(OC)C(OC)C2=CC(=O)O[C@@H](C(C)C(OC)CC(OC)/C=C/C(C)C(O)C1)[C@H]2O` (stereo partly specified), 0.0514 µM.
The same measure, in the same setting: for `C=C(Br)CNC(=O)Nc1ccc(Cl)c(Cl)c1` the value was 49 µM; for `O=c1[nH]cc(-c2c[nH]c3ccccc23)nc1-c1c[nH]c2ccccc12`, 23.7 µM.
`Nc1n[n+](CC(=O)c2ccccc2)c2sc(-c3ccccc3)nn12` displayed a TGI of 82.7 µM.
As to `CCC(C=O)P1(=O)OC(C)(C)CN1C(C)(C)C` (stereo unspecified), the TGI is greater than 100 µM.
The same measure, in the same setting: for `CC1CC(C)C(C#N)N(C)c2ccccc21` (stereo unspecified) the value was greater than 100 µM.
Still for that read-out and setting: with `O=C(O)C12C3CCC(CC3)C1(C(=O)O)C1CCC2C1` (stereo unspecified) the figure was greater than 100 µM; with `NC(N)=NCCCC(NC(=O)c1cccc2c(=O)c3ccccc3[nH]c12)C(=O)O` (stereo unspecified), greater than 100 µM; with `O=C(NNCC(O)COc1ccccc1)c1ccccc1` (stereo unspecified), greater than 100 µM.
Same read-out and setting: with `O=S1(=O)OCCOS(=O)(=O)C1(F)Br` the figure was greater than 100 µM.
Turning to `COC(=O)[C@H](CCSC)NC(=O)N[C@H](C)c1ccccc1`, the TGI was greater than 100 µM.
Still for that read-out and setting: for `C=CC[C@@H](N)C(=O)N(C)[C@@H](C)[C@@H](O)c1ccccc1` the value was greater than 100 µM; for `N#Cc1sc2c(c1OC(=O)c1ccccc1)c(=O)n(-c1ccccc1)c(=S)n2-c1ccccc1`, 40.9 µM; for `Cc1cc(C)c(-n2[nH]c(=O)n(C)c2=O)c(C)c1`, greater than 100 µM.
Same read-out and setting: with `O=C(NC1=C(Cl)C(=O)c2ccccc2C1=O)c1ccc(F)cc1` the figure was 2.85 µM; with `CC1=NC(=Cc2cccc(Cl)c2)C(=O)N1n1c(-c2ccccc2)nc2ccccc2c1=O`, greater than 100 µM; with `CO/C(=N\N=C\c1ccc(OC)c(OC)c1)c1ccncc1`, greater than 10 µM.
Same read-out and setting: with `COc1cc2c(c(OC)c1)/C(=C/Sc1ccccc1)C(=O)N(C(C)(C)C)C2` the figure was 90 µM; with `CC(C)(C)OC(=O)N/N=C(/N)Cc1ccc(Cl)cc1`, greater than 100 µM.

The test system of a further experiment is RXF 393 renal. The experiment in a line: inhibition of tumour cell growth, NCI panel, 48 h.
The molecule `COC(=O)[C@@H]1[C@H](OC(C)=O)CCC2[C@@]3(C[C@@H](c4ccoc4)O[C@@H]3OC)[C@H](C)CC[C@]21C(=O)OC` (stereo partly specified) displayed a TGI greater than 25 µM.
Still for that read-out and setting: for `Cc1n[nH]c(=O)n1N1C(=O)CCCC1=O` the value was greater than 100 µM.
The same measure, in the same setting: with `COCc1nc(N)nc(N2N=C(C)CC2(C)C)n1` the figure was greater than 100 µM.
`CC(C)(C)OC(=O)NC(Cc1ccccc1)OCc1ccccc1` (stereo unspecified) registered a TGI of 35.1 µM.
Still for that read-out and setting: with `O=C(c1ccccc1)c1ccc2nc(-c3c(Cl)c(Cl)c(Cl)c(Cl)c3C(=O)N/N=C/c3ccc(Cl)cc3)[nH]c2c1` the figure was 85.9 µM; with `CC(=O)c1ccc2c(c1)CC1(C2)Cc2cc3c(cc2C1=O)CCC3` (stereo unspecified), 90.4 µM.
On the same count and under the same terms, with `CCc1nn(CN2CCOCC2)c(=S)n1/N=C/c1ccc(-c2ccc(Cl)cc2)o1` the figure was greater than 100 µM.
On the same count and under the same terms, for `CSc1nc2c(c(=O)[nH]1)N=C(c1ccc([N+](=O)[O-])cc1)CC(c1ccccc1)N2` (stereo unspecified) the value was greater than 100 µM; for `CS(=O)(=O)OCC1CN(S(C)(=O)=O)c2cc(O)ccc21` (stereo unspecified), 3.47 µM.
`COC1/C=C/C(C)C(C(C)C(OC)C(C)CCC(=O)C(C)C(C/C=C/N(C)C=O)OC)OC(=O)C=CC2OC2(C)CC(OC)C(OC)C2=CC(=O)O[C@@H](C(C)C(OC)CC(OC)/C=C/C(C)C(O)C1)[C@H]2O` (stereo partly specified) had a TGI of 0.0473 µM.
For `C=C(Br)CNC(=O)Nc1ccc(Cl)c(Cl)c1`, the TGI was 40 µM.
On the same count and under the same terms, with `O=c1[nH]cc(-c2c[nH]c3ccccc23)nc1-c1c[nH]c2ccccc12` the figure was 10.3 µM.
Same read-out and setting: with `Nc1n[n+](CC(=O)c2ccccc2)c2sc(-c3ccccc3)nn12` the figure was greater than 100 µM.
Same read-out and setting: for `CC1CC(C)C(C#N)N(C)c2ccccc21` (stereo unspecified) the value was greater than 100 µM; for `O=C(O)C12C3CCC(CC3)C1(C(=O)O)C1CCC2C1` (stereo unspecified), greater than 100 µM.
Take `O=C(NNCC(O)COc1ccccc1)c1ccccc1` (stereo unspecified): the TGI was greater than 100 µM.
Same read-out and setting: with `COC(=O)[C@@H]1CC(C(C[N+](=O)[O-])c2ccc(O[Si](C)(C)C(C)(C)C)cc2)C(=O)N1C(=O)OC(C)(C)C` (stereo partly specified) the figure was greater than 100 µM.
The same measure, in the same setting: with `O=S1(=O)OCCOS(=O)(=O)C1(F)Br` the figure was greater than 100 µM; with `N#Cc1sc2c(c1OC(=O)c1ccccc1)c(=O)n(-c1ccccc1)c(=S)n2-c1ccccc1`, 32.7 µM.
Still for that read-out and setting: for `Cc1cc(C)c(-n2[nH]c(=O)n(C)c2=O)c(C)c1` the value was greater than 100 µM; for `O=C(NC1=C(Cl)C(=O)c2ccccc2C1=O)c1ccc(F)cc1`, 5.4 µM; for `CCC(CCCN)Nc1cc(OC)cc2c(C)ccnc12` (stereo unspecified), 27 µM.
Take `CC(C)(C)OC(=O)N/N=C(/N)Cc1ccc(Cl)cc1`: the TGI was greater than 100 µM.
